Data on three compounds can be found in patent US20150004126A9, “COMPOSITIONS” (GIVAUDAN S.A., priority 2011, published 2015).

Data set [1] addresses N-alpha acyl glutamine aminoacylase (Corynebacterium striatum, UniProt Q8GGD4). Put plainly: Malodour generated on cloth with enzyme and HMHA sweat precursor, assessed by a panel. It counts as biochemical, Corynebacteria. To be noted: 0.1% compound in respective test products (un-fragranced base, fragranced base, Febreze) on polycotton cloth with HMHA precursor and enzyme, 37° C. 30 min; panel scale 0-10; vs untreated control. The text has this: The objective of the study is to measure the effectiveness of malodour-counteracting compounds for use in the present invention at reducing malodour generated on cloth in the presence of the enzyme N-alpha acyl glutamine aminoacylase, and the sweat precursor for the malodorous fatty acid 3-methyl-3-hydroxy-hexanoic acid (HMHA). The aim is to achieve a significant reduction in malodour on cloth against: • a) an untreated fabric • b) a marketed fabric freshener, namely Spring & Renewal Febreze®.
140 μg of odourless precursor for HMHA (equivalent to 15 minutes of physical exercise) is dissolved in 125 μl of 12% ethanol/88% water and applied to 12.5 cm2 polycotton (40/60 mix) cloth in a 30 ml Beatson jar.
The cloth was allowed to dry completely in a 40° C. oven before checking for residual malodour.
Thereafter, the cloth was moistened with 125 μl of a solution containing 0.33 μg/ml of the enzyme N-α-acyl glutamine aminoacylase in 50 mM phosphate buffer pH 6 and the treated cloth was allowed to incubate in a glass jar at 37° C. for 30 minutes.
Thereafter a few drops of a 10% concentration of HCL were added to protonate the acids.
Malodour was assessed by a panel on a scale of 0 (nothing)-10 (very strong)
Malodour precursor was applied to cloth as described above and the cloth allowed to dry in an oven at 40° C.
125 μl of each of the following solutions was applied on to polycotton cloth already containing the precursor and allowed to dry in a 40° C. oven:
0.1% of the Compounds (I), (II), and (III) defined above (hereinafter referred to generally as “compound”), dissolved in an un-fragranced in-house fabric refresher base 0.1% of each compound dissolved in a fragranced fabric refresher base fragranced with a 0.05% of a proprietary fragrance having a floral-green-aldehyde odour (hereinafter “fragrance”).
0.1% of each inhibitor dissolved in a Febreze(r) Market product (Spring & Renewal) […]

Data set [2] in a line: Solubility in a cyclodextrin-containing fabric refreshener. It counts as physicochemical. To be noted: at 0.1%.

Chain of N-alpha acyl glutamine aminoacylase (Q8GGD4 whole entry): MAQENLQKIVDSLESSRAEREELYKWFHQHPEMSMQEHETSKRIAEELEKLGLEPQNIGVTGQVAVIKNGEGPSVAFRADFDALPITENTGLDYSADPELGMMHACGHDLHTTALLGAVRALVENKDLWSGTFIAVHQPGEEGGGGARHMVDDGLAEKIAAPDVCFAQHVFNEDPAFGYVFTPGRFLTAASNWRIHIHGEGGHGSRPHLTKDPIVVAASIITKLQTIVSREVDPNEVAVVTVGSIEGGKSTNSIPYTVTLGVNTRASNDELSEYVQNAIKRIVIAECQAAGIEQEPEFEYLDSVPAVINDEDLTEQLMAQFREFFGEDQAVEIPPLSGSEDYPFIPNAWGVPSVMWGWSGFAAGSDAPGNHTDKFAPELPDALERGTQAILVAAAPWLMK

On to `CC(CCOC(=O)NC(CCC(N)=O)C(=O)O)CCc1ccccc1` (stereo not drawn) [Compound II], for which the “malodour reduction compared with the control” value (“malodour reduction” below) in data set [1] is “clear and significant malodour reduction”. Further, the “solubility in a cyclodextrin-containing fabric refreshener” value (from here on “solubility”) in data set [2] is “soluble”.

As for `NC(=O)CC[C@H](NC(=O)OCc1ccccc1)C(=O)O` [Compound I], the “malodour reduction” value in data set [1] is “clear and significant malodour reduction”. The “solubility” value in data set [2] is listed as “soluble”.

Regarding `CCCCC(CC)CNC(=O)N[C@@H](CCC(N)=O)C(=O)O` (stereo partly drawn) [Compound III], the “malodour reduction” value in data set [1] is “clear and significant malodour reduction”. Besides, the “solubility” value in data set [2] is reported as “soluble”.
